Laboratory results published in patent US6399541B1, “Substituted 2,4-diamino-1,3,5-triazines as herbicides” (Bayer Aktiengesellschaft, priority 1997, dated 2002).

Tests used:
Cassia [1] = test: Post-emergence test/greenhouse; type: in vivo; conditions: 125 g of ai./ha, after three weeks
Description: (§1) Solvent: 5 parts by weight of acetone
(§2) Emulsifier: 1 part by weight of alkylaryl polyglycol ether
(§3) To produce a suitable preparation of active compound, 1 part by weight of active compound is mixed with the stated amount of solvent, the stated amount of emulsifier is added and the concentrate is diluted with water to the desired concentration.
(§4) Test plants which have a height of 5 to 15 cm are sprayed with the preparation of active compound in such a way that the particular amounts of active compound desired are applied per unit area. The concentration of the spray liquor is chosen such that the particular amounts of active compound desired are applied in 1000 l of water/ha.
(§5) After three weeks, the degree of damage to the plants is assessed in % damage in comparison to the development of the untreated control.
(§6) 0%=no effect (as untreated control)

Solanum = test: Post-emergence test/greenhouse; type: in vivo; conditions: 60 g of ai./ha, after three weeks
Description: as §1, §2, §3, §4, §5, §6

Matricaria = test: Post-emergence test/greenhouse; type: in vivo; conditions: 125 g of ai./ha, after three weeks
Description: as §1, §2, §3, §4, §5, §6

Polygonum = test: Post-emergence test/greenhouse; type: in vivo; conditions: 60 g of ai./ha, after three weeks
Description: as §1, §2, §3, §4, §5, §6

Veronica = test: Post-emergence test/greenhouse; type: in vivo; conditions: after three weeks
Description: as §1, §2, §3, §4, §5, §6

Ipomoea [2] = test: Post-emergence test/greenhouse; type: in vivo; conditions: after three weeks
Description: as §1, §2, §3, §4, §5, §6

weeds [3] = test: Post-emergence test; type: in vivo; conditions: cf. Table B
Description: as §1, §2, §3, §4, §5, §6

weeds [4] = test: Pre-emergence test; type: in vivo; conditions: cf. Table A
Description: as §1, §2, §3
(§7) Seeds of the test plants are sown in normal soil. After about 24 hours, the soil is sprayed with the preparation of active compound in such a way that the particular amounts of active compound desired are employed per unit area. The concentration of the spray liquor is chosen such that the particular amounts of active compound desired are applied in 1000 l of water/ha.
as §5
(§8) 0%=no effect (as untreated control) 100%=total destruction

Galium = test: Pre-emergence test/greenhouse; type: in vivo; conditions: 1000 g of ai./ha, after three weeks
Description: as §1, §2, §3, §7, §5, §8

Alopecurus = test: Pre-emergence test/greenhouse; type: in vivo; conditions: after three weeks
Description: as §1, §2, §3, §7, §5, §8

Xanthium [5] = test: Pre-emergence test/greenhouse; type: in vivo; conditions: 1000 g of ai./ha, after three weeks
Description: as §1, §2, §3, §7, §5, §8

Abutilon = test: Pre-emergence test/greenhouse; type: in vivo; conditions: 1000 g of ai./ha, after three weeks
Description: as §1, §2, §3, §7, §5, §8

Avena fatua = test: Pre-emergence test/greenhouse; type: in vivo; conditions: after three weeks
Description: as §1, §2, §3, §7, §5, §8

Amaranthus = test: Pre-emergence test/greenhouse; type: in vivo; conditions: 1000 g of ai./ha, after three weeks
Description: as §1, §2, §3, §7, §5, §8

Echinochloa = test: Post-emergence test/greenhouse; type: in vivo; conditions: 125 g of ai./ha, after three weeks
Description: as §1, §2, §3, §4, §5, §6

Xanthium [6] = test: Post-emergence test/greenhouse; type: in vivo; conditions: 125 g of ai./ha, after three weeks
Description: as §1, §2, §3, §4, §5, §6

Setaria [7] = test: Post-emergence test/greenhouse; type: in vivo; conditions: 125 g of ai./ha, after three weeks
Description: as §1, §2, §3, §4, §5, §6

Setaria [8] = test: Pre-emergence test/greenhouse; type: in vivo; conditions: after three weeks
Description: as §1, §2, §3, §7, §5, §8

Wheat = test: Post-emergence test/greenhouse; type: in vivo; conditions: 125 g of ai./ha, after three weeks
Description: as §1, §2, §3, §4, §5, §6

Barley = test: Post-emergence test/greenhouse; type: in vivo; conditions: 125 g of ai./ha, after three weeks
Description: as §1, §2, §3, §4, §5, §6

Viola = test: Pre-emergence test/greenhouse; type: in vivo; conditions: 250 g of ai./ha, after three weeks
Description: as §1, §2, §3, §7, §5, §8

Cassia [9] = test: Pre-emergence test/greenhouse; type: in vivo; conditions: 250 g of ai./ha, after three weeks
Description: as §1, §2, §3, §7, §5, §8

Ipomoea [10] = test: Pre-emergence test/greenhouse; type: in vivo; conditions: 250 g of ai./ha, after three weeks
Description: as §1, §2, §3, §7, §5, §8

Compound | degree of damage, Cassia (Cassia [1]) [%] | degree of damage, Matricaria (Matricaria) [%] | degree of damage, Veronica (Veronica; 125 g of ai./ha) [%] | degree of damage, Ipomoea (Ipomoea [2]; 125 g of ai./ha) [%] | activity against weeds compared with known compound (A) (weeds [3]) | action against weeds compared with known compound (A) (weeds [4]) | degree of damage, Alopecurus (Alopecurus; 1000 g of ai./ha) [%] | degree of damage, Abutilon (Abutilon) [%] | degree of damage, Amaranthus (Amaranthus) [%] | further results
CCC(Nc1nc(N)nc(C(C)F)n1)c1ccccc1 (racemic) [Example 1, 2-amino-4-(1-fluoro-ethyl)-6-(1-phenyl-propyl-amino)-1,3,5-triazine] | 90 | 80 | 100 | 100 | considerably stronger activity against weeds than the known compound (A) | considerably strong action against weeds than the known compound (A) | 100 | 70 | 100 | degree of damage, Solanum (Solanum): 95%; degree of damage, Polygonum (Polygonum): 100%; degree of damage, Veronica (Veronica; 60 g of ai./ha): 95%; degree of damage, Ipomoea (Ipomoea [2]; 60 g of ai./ha): 100%; degree of damage, Galium (Galium): 100%; degree of damage, Xanthium (Xanthium [5]): 100%; degree of damage, Avena fatua (Avena fatua; 1000 g of ai./ha): 70%
CCC(Nc1nc(NC(C)=O)nc(C(C)F)n1)c1ccccc1 (racemic) [Example 2, 2-acetylamino-4-(1-fluoro-ethyl)-6-(1-phenyl-propylamino)-1,3,5-triazine] | 100 | 95 | 95 | 100 | considerably stronger activity against weeds than the known compound (A) | considerably strong action against weeds than the known compound (A) | 90 | 100 | 100 | degree of damage, Echinochloa (Echinochloa): 80%; degree of damage, Xanthium (Xanthium [6]): 80%; degree of damage, Setaria (Setaria [7]): 80%; melting point: 118 °C; degree of damage, Setaria (Setaria [8]; 1000 g of ai./ha): 70%
CC(Nc1nc(N)nc(C(C)(C)F)n1)c1ccccc1 (racemic) [Example 13] | 95 |  | 100 | 100 | considerably stronger activity against weeds than the known compound (A) | considerably strong action against weeds than the known compound (A) |  |  |  | degree of damage, Wheat (Wheat): 0%; degree of damage, Barley (Barley): 0%; degree of damage, Viola (Viola): 100%; degree of damage, Alopecurus (Alopecurus; 250 g of ai./ha): 90%; degree of damage, Cassia (Cassia [9]): 100%; degree of damage, Avena fatua (Avena fatua; 250 g of ai./ha): 90%; degree of damage, Ipomoea (Ipomoea [10]): 80%; degree of damage, Setaria (Setaria [8]; 250 g of ai./ha): 80%
